Reference: ChEMBL document CHEMBL4265876, “Natural Products with Heteroatom-Rich Ring Systems” (J Nat Prod, 2017)

Experiments:
L1210 = assay: Cytotoxicity against mouse L1210 cells; format: functional, cell-based
V79 = assay: Cytotoxicity against chinese hamster V79 cells; format: cell-based; conditions: Cricetulus griseus
[1] = Inhibition of protein kinase A (unknown origin); parameters: species or system Homo sapiens
SF-268 = assay: Cytotoxicity against human SF268 cells assessed as cell killing at 50 uM relative to control; format: functional
T-cell = assay: Inhibition of ConA-induced cell proliferation of BALB/c mouse T-lymphocytes assessed as reduction in [3H]thymidine incorporation incubated for 48 hrs by beta scintillation counting method; format: functional
Staphylococcus aureus = assay: Antibacterial activity against Staphylococcus aureus assessed as inhibition zone at 50 ug/disk; format: functional; conditions: read-out: IZ
Escherichia coli = assay: Antibacterial activity against Escherichia coli assessed as inhibition zone at 50 ug/disk; format: functional; conditions: read-out: IZ

COc1cc(CCN(C)C)c2c(c1O)SSC(C)S2 (configuration not stated)
IC50 (L1210): 700 nM
IC50 (V79): 140 nM

COc1c(OC)c2c(c(CCN)c1SC)SSS2
IC50 [1]: > 25 µg/mL

CC[C@H](C)C1=C(O)[N@+]2([O-])Oc3ccc(-c4c(O)c(O)c(-c5ccc(OC(C)=O)cc5)c(OC(C)=O)c4OC(C)=O)cc3O[C@@]2([C@@H](C)CC)C(=O)N1O
Activity (SF-268): 96%

COC1=C[C@@H](C)O[C@@H](O[C@H]2CC[C@@]3(C)C(=CC[C@@H]4[C@@H]3CC[C@@]3(C)[C@H]4CC[C@]3(O)[C@H](C)O[C@H]3C[C@H]4OCO[C@@]5(C[C@@H](OC)[C@H](O[C@H]6C[C@H](OC)[C@H](O[C@H]7C[C@@H](O)[C@H](O[C@H]8C[C@H](OC)[C@H](O[C@H]9C[C@H](O)[C@H](OC(C)=O)[C@@H](C)O9)[C@@H](C)O8)[C@@H](C)O7)[C@@H](C)O6)[C@@H](C)O5)O[C@@H]4[C@@H](C)O3)C2)C1=O
IC50 (T-cell): 290 to 1970 nM

COc1cc(CCN(C)C)c2sc3c(OC)c(OC)c(SC)c(CCN(C)C)c3ssc2c1O [LISSOCLIBADIN 5]
zone of inhibition at 50 µg/disc (Staphylococcus aureus): 15.8 mm
zone of inhibition at 50 µg/disc (Escherichia coli): 11.6 mm

CC[C@H](C)C1=C(OC(C)=O)[N@+]2([O-])Oc3ccc(-c4c(O)c(O)c(-c5ccc(OC(C)=O)cc5)c(OC(C)=O)c4OC(C)=O)cc3O[C@@]2([C@@H](C)CC)C(=O)N1O
Activity (SF-268): 93%

COC1=C[C@@H](C)O[C@@H](O[C@H]2CC[C@@]3(C)C(=CC[C@@H]4[C@@H]3CC[C@@]3(C)[C@H]4CC[C@]3(O)[C@H](C)O[C@H]3C[C@H]4OCO[C@@]5(C[C@@H](OC)[C@H](O[C@H]6C[C@H](O)[C@H](O[C@H]7C[C@@H](O)[C@H](O[C@H]8C[C@H](OC)[C@H](O[C@@H]9O[C@H](C)[C@H](O)[C@H](OC)[C@H]9OC(C)=O)[C@@H](C)O8)[C@@H](C)O7)[C@@H](C)O6)[C@@H](C)O5)O[C@@H]4[C@@H](C)O3)C2)C1=O
IC50 (T-cell): 290 to 1970 nM

CO[C@H]1C[C@H](O[C@H]2[C@@H](OC)C[C@H](O[C@H]3[C@H](O)C[C@H](O[C@H]4[C@@H](OC)C[C@H](O[C@@H]5[C@@H](C)O[C@@]6(C[C@H]5OC)OCO[C@@H]5C[C@H](O[C@@H](C)[C@@]7(O)CC[C@H]8[C@@H]9CC=C%10C[C@@H](O)CC[C@]%10(C)[C@H]9CC[C@@]87C)O[C@H](C)[C@H]5O6)O[C@@H]4C)O[C@@H]3C)O[C@@H]2C)O[C@H](C)[C@H]1OC(C)=O
IC50 (T-cell): 290 to 1970 nM

NCCc1cc(O)c(O)c2c1SSSSS2
IC50 [1]: > 25 µg/mL

COc1c(OC)c2c(c(CCN)c1SC)SSSSS2
IC50 [1]: > 25 µg/mL

COC1=C[C@@H](C)O[C@@H](O[C@H]2CC[C@@]3(C)C(=CC[C@@H]4[C@@H]3CC[C@@]3(C)[C@H]4CC[C@]3(O)[C@H](C)O[C@H]3C[C@H]4OCO[C@@]5(C[C@@H](OC)[C@H](O[C@H]6C[C@H](OC)[C@H](O[C@H]7C[C@@H](O)[C@H](O[C@H]8C[C@H](OC)[C@H](O[C@H]9C[C@@H](OC)[C@H](O)[C@@H](C)O9)[C@@H](C)O8)[C@@H](C)O7)[C@@H](C)O6)[C@@H](C)O5)O[C@@H]4[C@@H](C)O3)C2)C1=O
IC50 (T-cell): 290 to 1970 nM

CO[C@H]1C[C@H](O[C@@H]2[C@@H](C)O[C@@]3(C[C@H]2OC)OCO[C@@H]2C[C@H](O[C@@H](C)[C@@]4(O)CC[C@H]5[C@@H]6CC=C7C[C@@H](O)CC[C@]7(C)[C@H]6CC[C@@]54C)O[C@H](C)[C@H]2O3)O[C@H](C)[C@H]1O[C@H]1C[C@@H](O)[C@H](O[C@H]2C[C@H](OC)[C@H](O[C@H]3C[C@@H](OC)[C@H](O)[C@@H](C)O3)[C@@H](C)O2)[C@@H](C)O1
IC50 (T-cell): 290 to 1970 nM

CC[C@H](C)C1=C(O)[N@@+]2([O-])Oc3ccc(-c4c(O)c(O)c(-c5ccc(OC(C)=O)cc5)c(OC(C)=O)c4OC(C)=O)cc3O[C@@]2([C@@H](C)CC)C(=O)N1O
Activity (SF-268): 95%

COc1cc(CCN(C)C)c2sc3c(O)c(OC)cc(CCN(C)C)c3ssc2c1O [LISSOCLIBADIN 4]
zone of inhibition at 50 µg/disc (Staphylococcus aureus): 13.1 mm
zone of inhibition at 50 µg/disc (Escherichia coli): 15.7 mm
